For one test, the target named is memapsin 2 (Homo sapiens, UniProt P56817). As to the kind of experiment: Inhibition of memapsin 2 beta-secretase activity (fluorogenic substrate FS-2). Format: biochemical. The following applies: memapsin 2, pH 4, 37° C., read-out: M2Ki. An outline of the steps:
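Memapsin 2 pre-incubated 20 min with compound at pH 4, 37° C, then FS-2 substrate (MCA-SEVNLDAEFK-DNP, APP Swedish cleavage site) added. Rate of fluorescence increase compared with uninhibited controls, fitted to a tight-binding inhibition model.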

The subject of test [1] is Aβ production in Chinese hamster ovary cells that over-express human APP695 with the London and Swedish mutations. Briefly: Cellular Aβ IC50 determination (Aβ40 sandwich ELISA). It is filed as cell-based. The following applies: Cricetulus griseus; cellular Aβ production; read-out: IC50. As to the method: The potency of compounds against memapsin 2 activity was determined in a cellular assay of Aβ production. […] Chinese hamster ovary cells that over-express human APP695 with the London and Swedish mutations were seeded in multi-well plates at 10% confluency. Compounds are dissolved in DMSO to concentrations near 1 mM, and diluted into culture media to a final concentration near 4 μM (final 0.4% DMSO). […] Aliquots were removed and assayed for Aβ40 content using a sandwich ELISA (BioSource International). Amount of Aβ40 over the range of concentration of compounds, relative to control incubations, were fit to a 4-parameter IC50 model.
(In general: An ELISA detects its analyte on a solid surface through an enzyme-linked reagent.)

The term IC50 denotes the concentration needed to halve the response being measured.

SMILES strings stand for the structures. Where two headings read alike, the source gives them in different places. Some results are limits rather than exact numbers.

Chain of memapsin 2 (P56817 46-501): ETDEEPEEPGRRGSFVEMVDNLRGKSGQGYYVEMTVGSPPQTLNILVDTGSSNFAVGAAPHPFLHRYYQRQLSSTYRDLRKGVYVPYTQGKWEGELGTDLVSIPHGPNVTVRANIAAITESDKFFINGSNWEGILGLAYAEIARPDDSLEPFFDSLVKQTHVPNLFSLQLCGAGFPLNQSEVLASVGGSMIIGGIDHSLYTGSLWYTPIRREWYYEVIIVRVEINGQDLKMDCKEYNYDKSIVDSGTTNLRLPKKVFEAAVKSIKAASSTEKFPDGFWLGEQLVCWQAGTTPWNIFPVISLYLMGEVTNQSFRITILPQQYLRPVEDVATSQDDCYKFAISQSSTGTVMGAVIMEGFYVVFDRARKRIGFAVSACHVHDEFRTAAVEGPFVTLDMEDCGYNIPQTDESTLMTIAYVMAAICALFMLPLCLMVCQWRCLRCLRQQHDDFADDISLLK

In the case of `COc1cccc(CNC[C@@H](O)[C@H](Cc2ccccc2)NC(=O)c2cc(C)cc(C(=O)N(Cc3nc(C)cs3)C3CC3)c2)c1` [Compound 9, N1-cyclopropyl-N3-((2S,3R)-3-hydroxy-4-(3-methoxybenzylamino)-1-phenylbutan-2-yl)-5-methyl-N1-((4-methylthiazol-2-yl)methyl)isophthalamide], the Ki at memapsin 2 (20 minutes pre-incubation) is < 0.3 µM. The IC50 in test [1] was < 1 µM.

Take `CNc1cc(CNC[C@@H](O)[C@H](Cc2ccccc2)NC(=O)c2cccc(C(=O)N(C)Cc3nc(C)cs3)c2)cc(C(C)C)c1` [Compound 133, N1-((2S,3R)-3-hydroxy-4-(3-isopropyl-5-(methylamino)benzylamino)-1-phenylbutan-2-yl)-N3-methyl-N3-((4-methylthiazol-2-yl)methyl)isophthalamide]: the Ki at memapsin 2 (20 minutes pre-incubation) was < 0.3 µM. Also, the IC50 in test [1] is < 1 µM.

Turning to `COCc1cc(C(=O)N[C@@H](Cc2ccccc2)[C@H](O)CNCc2cccc(OC)c2)cc(C(=O)N(C)Cc2nc(C)cs2)c1` [Compound 122, N1-((2S,3R)-3-hydroxy-4-(3-methoxybenzylamino)-1-phenylbutan-2-yl)-5-(methoxymethyl)-N3-methyl-N3-((4-methylthiazol-2-yl)methyl)isophthalamide], the Ki on memapsin 2 (20 minutes pre-incubation) was < 0.3 µM. Besides, in test [1], the IC50 was < 1 µM.

In the case of `COc1cccc(C(C)(C)NC[C@@H](O)[C@H](Cc2ccccc2)NC(=O)c2cccc(C(=O)N(C)Cc3nc(C)cs3)c2)c1` [Compound 163, N1-((2S,3R)-3-hydroxy-4-(2-(3-methoxyphenyl)propan-2-ylamino)-1-phenylbutan-2-yl)-N3-methyl-N3-((4-methylthiazol-2-yl)methyl)isophthalamide], the Ki on memapsin 2 (20 minutes pre-incubation) was < 0.3 µM. For the same molecule, the IC50 in test [1] was < 1 µM.

Regarding `COc1cccc(CNC[C@@H](O)[C@H](Cc2ccccc2)NC(=O)c2cccc(C(=O)N(C)Cc3ccn(C)n3)c2)c1` [Compound 61, N1-((2S,3R)-3-hydroxy-4-(3-methoxybenzylamino)-1-phenylbutan-2-yl)-N3-methyl-N3-((1-methyl-1H-pyrazol-3-yl)methyl)isophthalamide], the Ki at memapsin 2 (20 minutes pre-incubation) was < 0.3 µM. Moreover, in test [1], the IC50 was in the range of 1 to 5 µM.

With `CC(C)c1cncc(CNC[C@@H](O)[C@H](Cc2ccccc2)NC(=O)c2cccc(C(=O)N(C)Cc3nc(CF)cs3)c2)c1` [Compound 278, N1-((4-(fluoromethyl)thiazol-2-yl)methyl)-N3-((2S,3R)-3-hydroxy-4-((5-isopropylpyridin-3-yl)methylamino)-1-phenylbutan-2-yl)-N1-methylisophthalamide], the Ki on memapsin 2 (fluorogenic substrate FS-2) was < 0.3 µM. In addition, the IC50 in test [1] is < 1 µM.

Consider `Cc1csc(CN(C)C(=O)c2cccc(C(=O)N[C@@H](Cc3ccccc3)[C@H](O)CNCc3cc(C(C)C)cc(S(C)(=O)=O)c3)c2)n1` [Compound 150, N1-((2S,3R)-3-hydroxy-4-(3-isopropyl-5-(methylsulfonyl)benzylamino)-1-phenylbutan-2-yl)-N3-methyl-N3-((4-methylthiazol-2-yl)methyl)isophthalamide], for which the Ki at memapsin 2 (20 minutes pre-incubation) is < 0.3 µM. Moreover, the IC50 in test [1] is < 1 µM.

As for `CC(=O)c1cccc(CNC[C@@H](O)[C@H](Cc2ccccc2)NC(=O)c2cc(C(=O)N[C@H](C)c3ccccc3)cc(N(C)S(C)(=O)=O)c2)c1` [Compound 126, N1-((2S,3R)-4-(3-acetylbenzylamino)-3-hydroxy-1-phenylbutan-2-yl)-5-(N-methylmethylsulfonamido)-N3-((R)-1-phenylethyl)isophthalamide], the Ki at memapsin 2 (20 minutes pre-incubation) was < 0.3 µM. Besides, the IC50 in test [1] was < 1 µM.

`Cc1csc(CN(C)C(=O)c2cccc(C(=O)N[C@@H](Cc3ccccc3)[C@H](O)CNCc3cccc(C#N)c3)c2)n1` [Compound 137, N1-((2S,3R)-4-(3-cyanobenzylamino)-3-hydroxy-1-phenylbutan-2-yl)-N3-methyl-N3-((4-methylthiazol-2-yl)methyl)isophthalamide]: the Ki on memapsin 2 (20 minutes pre-incubation) was < 0.3 µM. Also, the IC50 in test [1] is < 1 µM.

These data come from patent publication US20100286145A1, “ISOPHTHALAMIDE DERIVATIVES INHIBITING BETA-SECRETASE ACTIVITY” (CoMentis, Inc., priority 2007, published 2010).
